According to US20250049773A1, “INHIBITION OF STEROL RESPONSE ELEMENT BINDING PROTEINS AS ATARGET FOR SELECTIVE ELIMINATION OF SENESCENT CELLS” (Trustees of Tufts College, priority 2021, published 2025):

Legend:
[1] = test system: IMR-90 fibroblasts; assay: Selective killing of senescent versus quiescent IMR-90 fibroblasts by SRE-BP activation inhibitors; type: cell-based; conditions: 30 μM
Protocol: FIGS. 1A and 1B. SRE-BP activation inhibitors selectively kill senescent cells. IMR-90 fibroblasts were induced to senesce with either 10 Gy of ionizing radiation (IR), 250 nM doxorubicin [SEN(DOXO)], or quiescent vehicle control (QUI) for 24 hours. Media was then replaced with drug-free growth media, and senescence was allowed to develop for 12 days. On day 12, growth media (10% serum) was replaced with quiescence media (0.2% serum+ITS supplement) for 48 hours to induce quiescence in non-senescent cells. On day 14, media was replaced with quiescence media containing increasing doses of fatostatin (A), xanthohumol (B), PF-429242 (C), or 30 micromolar betulin (D). DMSO served as a 0 micromolar vehicle control. \<0.001

[2] = test system: senescent cells in the liver; assay: Markers of senescence and SASP factors in liver of high fat diet mice by qRT-PCR; type: in vivo
Protocol: FIGS. 2A, 2B, 2C, and 2D. […] Mice were fed a high fat diet (HFD) or high fat diet with 60 mg/kg xanthohumol (HFD+XN) for 12 weeks. RNA was extracted from mice and analyzed by quantitative PCR for (A) p21^WAF1, (B) p16^INK4a, (C) p15^INK4b, and (D) SASP factors.
Prolonged high fat diet (HFD) induces the generation of senescent cells in the liver. To test the hypothesis that inhibitors of SRE-BP activation are senolytic, two groups of mice were fed a HFD for 12 weeks. A control group was fed a HFD alone (FIG. 2, HFD), and an experimental group (FIG. 2, HFD+XN) was fed a HFD and the SRE-BP activation inhibitor xanthohumol (XN). RNA was isolated from liver samples from each group and subjected to quantitative reverse transcriptase polymerase chain reaction (qRT-PCR). […] Accordingly, the data presented in FIG. 2D supports the hypothesis that SRE-BP activation inhibitors, e.g., xanthohumol, are senolytic.

[3] = SASP factor, mice, HFD + 60 mg/kg xanthohumol for 12 weeks vs HFD alone, liver RNA, qRT-PCR
[4] = mice, HFD + 60 mg/kg xanthohumol for 12 weeks vs HFD alone, liver RNA, qRT-PCR

SMILES	toxicity to senescent cells versus quiescent cells [1]	expression of 2′, 5′ oligoadenylate synthetase 2 (Oas2) [2, 3]	expression of C-C motif chemokine 2 (Ccl2) [2, 3]	expression of arachidonate 5-lipoxygenase (Alox5) [2, 3]	expression of growth differentiation factor 15 (Gdf15) [2, 3]	expression of interleukin 6 (IL-6) [2, 3]	expression of matrix metalloproteinase 3 (MMP3) [2, 3]	expression of plasminogen activator, urokinase (Plau) [2, 3]	expression of prostaglandin-endoperoxide synthase 2 (Ptgs2) [2, 3]	expression of serpin family E member 1 (Serpine1), encoding plasminogen activator inhibitor 1 (PAI-1) [2, 3]	expression of marker of senescence p15^INK4b [2, 4]	expression of marker of senescence p16^INK4a [2, 4]	expression of marker of senescence p21^WAF1 [2, 4]	several genes characteristic of SASP in mouse livers ([2]; summary statement, after administration of xanthohumol, qRT-PCR)	markers of senescence in vivo ([2]; summary statement, mice, HFD + 60 mg/kg xanthohumol for 12 weeks vs HFD)
C=C(C)[C@@H]1CC[C@]2(CO)CC[C@]3(C)[C@H](CC[C@@H]4[C@@]5(C)CC[C@H](O)C(C)(C)[C@@H]5CC[C@]43C)[C@@H]12 [betulin]	significantly more toxic to senescent cells than quiescent cells	–	–	–	–	–	–	–	–	–	–	–	–	–	–
COc1cc(O)c(CC=C(C)C)c(O)c1C(=O)/C=C/c1ccc(O)cc1 [xanthohumol]	–	reduced expression	reduced expression	reduced expression	reduced expression	reduced expression	reduced expression	reduced expression	reduced expression	reduced expression	reduced expression	reduced expression	reduced expression	reduced	lowers markers of senescence
